Data from the supplement of paper PMC10307832.

Legend:
Test in all cases: relative viability (nuclei count vs DMSO), 5 days (fraction); higher = more cells survive
A-427 = tested on: A-427
Method in brief: (§1)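 Nuclei were stained with Hoechst during a one-step fixation (final 0.05% Triton X-100, 1% formaldehyde, 1 ug/ml Hoechst) carried out 5 days after dosing, then counted on 4× images. The cells, lung cancer lines in 1536-well plates, had been dosed by pin tool the day after seeding with one drug alone or a fixed anchor-drug dose plus five library-drug doses (not always all listed) in √10 steps. Relative viability is the nuclei count in treated wells divided by that in vehicle wells, and each value is the median of duplicate plates.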

CAL-12T = tested on: CAL-12T
Method in brief: as §1

COR-L 105 = tested on: COR-L 105
Method in brief: as §1

EMC-BAC-2 = tested on: EMC-BAC-2
Method in brief: as §1

HARA = tested on: HARA
Method in brief: as §1

HCC-366 = tested on: HCC-366
Method in brief: as §1

HCC-827 = tested on: HCC-827
Method in brief: as §1

HOP-62 = tested on: HOP-62
Method in brief: as §1

LCLC-103H = tested on: LCLC-103H
Method in brief: as §1

NCI-H1355 = tested on: NCI-H1355
Method in brief: as §1

NCI-H1395 = tested on: NCI-H1395
Method in brief: as §1

NCI-H1437 = tested on: NCI-H1437
Method in brief: as §1

NCI-H1755 = tested on: NCI-H1755
Method in brief: as §1

NCI-H1792 = tested on: NCI-H1792
Method in brief: as §1

NCI-H1915 = tested on: NCI-H1915
Method in brief: as §1

NCI-H1975 = tested on: NCI-H1975
Method in brief: as §1

NCI-H2009 = tested on: NCI-H2009
Method in brief: as §1

NCI-H2228 = tested on: NCI-H2228
Method in brief: as §1

NCI-H23 = tested on: NCI-H23
Method in brief: as §1

NCI-H460 = tested on: NCI-H460
Method in brief: as §1

NCI-H727 = tested on: NCI-H727
Method in brief: as §1

SK-LU-1 = tested on: SK-LU-1
Method in brief: as §1

SW 1573 = tested on: SW 1573
Method in brief: as §1

CC1(C)CCC(c2ccc(Cl)cc2)=C(CN2CCN(c3ccc(C(=O)NS(=O)(=O)c4ccc(N[C@H](CCN5CCOCC5)CSc5ccccc5)c(S(=O)(=O)C(F)(F)F)c4)cc3)CC2)C1 [Navitoclax] + N=C(N)NC(=N)NCCc1ccccc1 [Phenformin] (partner 250 µM)
relative viability (A-427; first compound 0.005 µM): 0.342 | relative viability (A-427; first compound 0.01581 µM): 0.359 | relative viability (A-427; first compound 0.05 µM): 0.179 | relative viability (A-427; first compound 0.1581 µM): 0.287 | relative viability (A-427; first compound 0.5 µM): 0.273 | relative viability (CAL-12T; first compound 0.005 µM): 0.527 | relative viability (CAL-12T; first compound 0.01581 µM): 0.655 | relative viability (CAL-12T; first compound 0.05 µM): 0.6 | relative viability (CAL-12T; first compound 0.1581 µM): 0.503 | relative viability (CAL-12T; first compound 0.5 µM): 0.582 | relative viability (COR-L 105; first compound 0.005 µM): 0.464 | relative viability (COR-L 105; first compound 0.01581 µM): 0.746 | relative viability (COR-L 105; first compound 0.05 µM): 0.431 | relative viability (COR-L 105; first compound 0.1581 µM): 0.503 | relative viability (COR-L 105; first compound 0.5 µM): 0.405 | relative viability (EMC-BAC-2; first compound 0.005 µM): 0.496 | relative viability (EMC-BAC-2; first compound 0.01581 µM): 0.604 | relative viability (EMC-BAC-2; first compound 0.05 µM): 0.523 | relative viability (EMC-BAC-2; first compound 0.1581 µM): 0.498 | relative viability (EMC-BAC-2; first compound 0.5 µM): 0.489 | relative viability (HARA; first compound 0.005 µM): 0.491 | relative viability (HARA; first compound 0.01581 µM): 0.554 | relative viability (HARA; first compound 0.1581 µM): 0.415 | relative viability (HARA; first compound 0.5 µM): 0.477 | relative viability (HCC-366; first compound 0.005 µM): 0.708 | relative viability (HCC-366; first compound 0.01581 µM): 0.616 | relative viability (HCC-366; first compound 0.1581 µM): 0.619 | relative viability (HCC-366; first compound 0.5 µM): 0.588 | relative viability (HCC-827; first compound 0.005 µM): 0.404 | relative viability (HCC-827; first compound 0.01581 µM): 0.434 | relative viability (HCC-827; first compound 0.05 µM): 0.355 | relative viability (HCC-827; first compound 0.1581 µM): 0.396 | relative viability (HCC-827; first compound 0.5 µM): 0.382 | relative viability (HOP-62; first compound 0.005 µM): 0.639 | relative viability (HOP-62; first compound 0.01581 µM): 0.673 | relative viability (HOP-62; first compound 0.05 µM): 0.65 | relative viability (HOP-62; first compound 0.1581 µM): 0.669 | relative viability (HOP-62; first compound 0.5 µM): 0.702 | relative viability (LCLC-103H; first compound 0.005 µM): 0.342 | relative viability (LCLC-103H; first compound 0.01581 µM): 0.359 | relative viability (LCLC-103H; first compound 0.05 µM): 0.314 | relative viability (LCLC-103H; first compound 0.1581 µM): 0.322 | relative viability (LCLC-103H; first compound 0.5 µM): 0.338 | relative viability (NCI-H1355; first compound 0.005 µM): 0.48 | relative viability (NCI-H1355; first compound 0.01581 µM): 0.467 | relative viability (NCI-H1355; first compound 0.05 µM): 0.388 | relative viability (NCI-H1355; first compound 0.1581 µM): 0.436 | relative viability (NCI-H1355; first compound 0.5 µM): 0.463 | relative viability (NCI-H1395; first compound 0.005 µM): 0.461 | relative viability (NCI-H1395; first compound 0.01581 µM): 0.501 | relative viability (NCI-H1395; first compound 0.05 µM): 0.451 | relative viability (NCI-H1395; first compound 0.1581 µM): 0.455 | relative viability (NCI-H1395; first compound 0.5 µM): 0.497 | relative viability (NCI-H1437; first compound 0.005 µM): 0.269 | relative viability (NCI-H1437; first compound 0.01581 µM): 0.333 | relative viability (NCI-H1437; first compound 0.05 µM): 0.334 | relative viability (NCI-H1437; first compound 0.1581 µM): 0.314 | relative viability (NCI-H1437; first compound 0.5 µM): 0.41 | relative viability (NCI-H1755; first compound 0.005 µM): 0.639 | relative viability (NCI-H1755; first compound 0.01581 µM): 0.659 | relative viability (NCI-H1755; first compound 0.05 µM): 0.575 | relative viability (NCI-H1755; first compound 0.1581 µM): 0.521 | relative viability (NCI-H1755; first compound 0.5 µM): 0.43 | relative viability (NCI-H1792; first compound 0.005 µM): 0.258 | relative viability (NCI-H1792; first compound 0.01581 µM): 0.179 | relative viability (NCI-H1792; first compound 0.5 µM): 0.112 | relative viability (NCI-H1915; first compound 0.005 µM): 0.382 | relative viability (NCI-H1915; first compound 0.01581 µM): 0.431 | relative viability (NCI-H1915; first compound 0.05 µM): 0.441 | relative viability (NCI-H1915; first compound 0.1581 µM): 0.42 | relative viability (NCI-H1915; first compound 0.5 µM): 0.388 | relative viability (NCI-H1975; first compound 0.005 µM): 0.427 | relative viability (NCI-H1975; first compound 0.01581 µM): 0.428 | relative viability (NCI-H1975; first compound 0.05 µM): 0.454 | relative viability (NCI-H1975; first compound 0.1581 µM): 0.414 | relative viability (NCI-H1975; first compound 0.5 µM): 0.42 | relative viability (NCI-H2009; first compound 0.005 µM): 0.495 | relative viability (NCI-H2009; first compound 0.01581 µM): 0.519 | relative viability (NCI-H2009; first compound 0.05 µM): 0.435 | relative viability (NCI-H2009; first compound 0.1581 µM): 0.47 | relative viability (NCI-H2009; first compound 0.5 µM): 0.484 | relative viability (NCI-H2228; first compound 0.005 µM): 0.35 | relative viability (NCI-H2228; first compound 0.01581 µM): 0.385 | relative viability (NCI-H2228; first compound 0.1581 µM): 0.276 | relative viability (NCI-H2228; first compound 0.5 µM): 0.418 | relative viability (NCI-H23; first compound 0.005 µM): 0.759 | relative viability (NCI-H23; first compound 0.01581 µM): 0.818 | relative viability (NCI-H23; first compound 0.05 µM): 0.662 | relative viability (NCI-H23; first compound 0.1581 µM): 0.783 | relative viability (NCI-H23; first compound 0.5 µM): 0.799 | relative viability (NCI-H460; first compound 0.005 µM): 0.509 | relative viability (NCI-H460; first compound 0.01581 µM): 0.512 | relative viability (NCI-H460; first compound 0.05 µM): 0.529 | relative viability (NCI-H460; first compound 0.1581 µM): 0.522 | relative viability (NCI-H460; first compound 0.5 µM): 0.515 | relative viability (NCI-H727; first compound 0.01581 µM): 0.804 | relative viability (NCI-H727; first compound 0.1581 µM): 0.479 | relative viability (NCI-H727; first compound 0.5 µM): 0.394 | relative viability (SK-LU-1; first compound 0.005 µM): 0.552 | relative viability (SK-LU-1; first compound 0.01581 µM): 0.608 | relative viability (SK-LU-1; first compound 0.05 µM): 0.501 | relative viability (SK-LU-1; first compound 0.1581 µM): 0.463 | relative viability (SK-LU-1; first compound 0.5 µM): 0.513 | relative viability (SW 1573; first compound 0.005 µM): 0.437 | relative viability (SW 1573; first compound 0.01581 µM): 0.503 | relative viability (SW 1573; first compound 0.05 µM): 0.358 | relative viability (SW 1573; first compound 0.1581 µM): 0.414 | relative viability (SW 1573; first compound 0.5 µM): 0.406
